Laboratory results published in PubChem BioAssay (NCI).
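Each compound was tested at five concentrations against cells in 96-well plates for 48 hours. GI50: concentration for 50% inhibition of growth. At the TGI there is no net growth.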

Experiments:
Experiment in all cases: NCI anticancer screen, dose series, 48 h
[1] = tested on: SW-620 colon
[2] = tested on: EKVX NSCLC
[3] = tested on: HS 578T breast
[4] = tested on: SF-539 CNS
[5] = tested on: UACC-257 melanoma
[6] = tested on: PC-3 prostate
[7] = tested on: MOLT-4 leukemia
[8] = tested on: OVCAR-8 ovarian
[9] = tested on: MDA-MB-231 breast
[10] = tested on: CCRF-CEM leukemia
[11] = tested on: SK-MEL-28 melanoma
[12] = tested on: HCT-116 colon
[13] = tested on: HL-60(TB) leukemia
[14] = tested on: TK-10 renal
[15] = tested on: HCT-15 colon
[16] = tested on: NCI-H460 lung
[17] = tested on: SNB-19 CNS
[18] = tested on: K-562 leukemia
[19] = tested on: SK-MEL-5 melanoma
[20] = tested on: NCI-H522 lung
[21] = tested on: SK-MEL-2 melanoma
[22] = tested on: HCC-2998 colon
[23] = tested on: DU-145 prostate
[24] = tested on: COLO 205 colon
[25] = tested on: BT-549 breast
[26] = tested on: NCI-H23 lung
[27] = tested on: MDA-MB-435
[28] = tested on: M14 melanoma
[29] = tested on: HOP-92 NSCLC
[30] = tested on: OVCAR-3 ovarian
[31] = tested on: OVCAR-5 ovarian
[32] = tested on: RXF 393 renal
[33] = tested on: IGROV1 ovarian
[34] = tested on: UACC-62 melanoma
[35] = tested on: A549 NSCLC
[36] = tested on: SK-OV-3 ovarian
[37] = tested on: HT29 colon
[38] = tested on: A498 renal
[39] = tested on: SF-295 CNS
[40] = tested on: ACHN renal
[41] = tested on: MALME-3M melanoma
[42] = tested on: LOX IMVI melanoma
[43] = tested on: U251 CNS
[44] = tested on: SNB-75 CNS
[45] = tested on: UO-31 renal
[46] = tested on: SF-268 CNS
[47] = tested on: SN12C renal
[48] = tested on: NCI/ADR-RES ovarian
[49] = tested on: SR leukemia
[50] = tested on: KM12 colon
[51] = tested on: CAKI-1 renal
[52] = tested on: MCF7 breast
[53] = tested on: HOP-62 NSCLC
[54] = tested on: T-47D breast
[55] = tested on: OVCAR-4 ovarian
[56] = tested on: RPMI-8226 leukemia
[57] = tested on: NCI-H226 lung
[58] = tested on: 786-0 renal

Structure (SMILES): O=C(NNc1nc2cc(F)cc(F)c2n2cccc12)c1ccncn1
- GI50 [1]: > 30 µM
- TGI [1]: > 30 µM
- GI50 [2]: > 30 µM
- TGI [2]: > 30 µM
- GI50 [3]: > 30 µM
- TGI [3]: > 30 µM
- GI50 [4]: > 30 µM
- TGI [4]: > 30 µM
- GI50 [5]: > 30 µM
- TGI [5]: > 30 µM
- GI50 [6]: > 30 µM
- TGI [6]: > 30 µM
- GI50 [7]: > 30 µM
- TGI [7]: > 30 µM
- GI50 [8]: > 30 µM
- TGI [8]: > 30 µM
- GI50 [9]: > 30 µM
- TGI [9]: > 30 µM
- GI50 [10]: > 30 µM
- TGI [10]: > 30 µM
- GI50 [11]: > 30 µM
- TGI [11]: > 30 µM
- GI50 [12]: > 30 µM
- TGI [12]: > 30 µM
- GI50 [13]: > 30 µM
- TGI [13]: > 30 µM
- GI50 [14]: > 30 µM
- TGI [14]: > 30 µM
- GI50 [15]: > 30 µM
- TGI [15]: > 30 µM
- GI50 [16]: > 30 µM
- TGI [16]: > 30 µM
- GI50 [17]: > 30 µM
- TGI [17]: > 30 µM
- GI50 [18]: > 30 µM
- TGI [18]: > 30 µM
- GI50 [19]: > 30 µM
- TGI [19]: > 30 µM
- GI50 [20]: > 30 µM
- TGI [20]: > 30 µM
- GI50 [21]: > 30 µM
- TGI [21]: > 30 µM
- GI50 [22]: > 30 µM
- TGI [22]: > 30 µM
- GI50 [23]: > 30 µM
- TGI [23]: > 30 µM
- GI50 [24]: > 30 µM
- TGI [24]: > 30 µM
- GI50 [25]: > 30 µM
- TGI [25]: > 30 µM
- GI50 [26]: > 30 µM
- TGI [26]: > 30 µM
- GI50 [27]: > 30 µM
- TGI [27]: > 30 µM
- GI50 [28]: > 30 µM
- TGI [28]: > 30 µM
- GI50 [29]: > 30 µM
- TGI [29]: > 30 µM
- GI50 [30]: > 30 µM
- TGI [30]: > 30 µM
- GI50 [31]: > 30 µM
- TGI [31]: > 30 µM
- GI50 [32]: > 30 µM
- TGI [32]: > 30 µM
- GI50 [33]: > 30 µM
- TGI [33]: > 30 µM
- GI50 [34]: > 30 µM
- TGI [34]: > 30 µM
- GI50 [35]: > 30 µM
- TGI [35]: > 30 µM
- GI50 [36]: > 30 µM
- TGI [36]: > 30 µM
- GI50 [37]: > 30 µM
- TGI [37]: > 30 µM
- GI50 [38]: > 30 µM
- TGI [38]: > 30 µM
- GI50 [39]: > 30 µM
- TGI [39]: > 30 µM
- GI50 [40]: > 30 µM
- TGI [40]: > 30 µM
- GI50 [41]: > 30 µM
- TGI [41]: > 30 µM
- GI50 [42]: > 30 µM
- TGI [42]: > 30 µM
- GI50 [43]: > 30 µM
- TGI [43]: > 30 µM
- GI50 [44]: > 30 µM
- TGI [44]: > 30 µM
- GI50 [45]: > 30 µM
- TGI [45]: > 30 µM
- GI50 [46]: > 30 µM
- TGI [46]: > 30 µM
- GI50 [47]: > 30 µM
- TGI [47]: > 30 µM
- GI50 [48]: > 30 µM
- TGI [48]: > 30 µM
- GI50 [49]: > 30 µM
- TGI [49]: > 30 µM
- GI50 [50]: > 30 µM
- TGI [50]: > 30 µM
- GI50 [51]: > 30 µM
- TGI [51]: > 30 µM
- GI50 [52]: > 30 µM
- TGI [52]: > 30 µM
- GI50 [53]: > 30 µM
- TGI [53]: > 30 µM
- GI50 [54]: > 30 µM
- TGI [54]: > 30 µM
- GI50 [55]: > 30 µM
- TGI [55]: > 30 µM
- GI50 [56]: > 30 µM
- TGI [56]: > 30 µM
- GI50 [57]: > 30 µM
- TGI [57]: > 30 µM
- GI50 [58]: > 30 µM
- TGI [58]: > 30 µM
